Test results taken from the kinase profiling compilation of Christmann-Franck et al. (2016).

Tests used:
Assay in all cases: KINOMEscan competition binding
Conditions in all cases: compound 10.0 µM
[1] = biological target: PRKD2 (human) (UniProt Q9BZL6)
[2] = biological target: RIPK4 (human) (UniProt P57078)
[3] = biological target: RPS6KA4 KD2 (human) (UniProt O75676)
[4] = biological target: EPHA4 (human) (UniProt P54764)
[5] = biological target: TXK (human) (UniProt P42681)
[6] = biological target: SLK (human) (UniProt Q9H2G2)
[7] = biological target: CAMK2D (human) (UniProt Q13557)
Chain of CAMK2D (human) (Q13557 whole entry, looked up): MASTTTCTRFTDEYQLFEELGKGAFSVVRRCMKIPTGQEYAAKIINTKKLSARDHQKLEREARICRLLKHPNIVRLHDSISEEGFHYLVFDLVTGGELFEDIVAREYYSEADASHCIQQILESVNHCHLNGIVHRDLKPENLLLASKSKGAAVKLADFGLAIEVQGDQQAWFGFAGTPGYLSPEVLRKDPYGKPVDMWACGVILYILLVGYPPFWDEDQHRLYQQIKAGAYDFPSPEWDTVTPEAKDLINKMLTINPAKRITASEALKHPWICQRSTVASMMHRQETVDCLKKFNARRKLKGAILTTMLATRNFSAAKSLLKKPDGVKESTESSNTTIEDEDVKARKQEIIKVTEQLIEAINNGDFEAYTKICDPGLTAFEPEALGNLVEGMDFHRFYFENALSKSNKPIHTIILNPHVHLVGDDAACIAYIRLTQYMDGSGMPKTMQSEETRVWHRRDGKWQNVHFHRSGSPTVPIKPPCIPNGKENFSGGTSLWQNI

[8] = biological target: SRPK2 (human) (UniProt P78362)
[9] = biological target: EPHB4 (human) (UniProt P54760)
[10] = biological target: RPS6KA2 KD2 (human) (UniProt Q15349)
Chain of RPS6KA2 KD2 (human) (Q15349 whole entry, looked up): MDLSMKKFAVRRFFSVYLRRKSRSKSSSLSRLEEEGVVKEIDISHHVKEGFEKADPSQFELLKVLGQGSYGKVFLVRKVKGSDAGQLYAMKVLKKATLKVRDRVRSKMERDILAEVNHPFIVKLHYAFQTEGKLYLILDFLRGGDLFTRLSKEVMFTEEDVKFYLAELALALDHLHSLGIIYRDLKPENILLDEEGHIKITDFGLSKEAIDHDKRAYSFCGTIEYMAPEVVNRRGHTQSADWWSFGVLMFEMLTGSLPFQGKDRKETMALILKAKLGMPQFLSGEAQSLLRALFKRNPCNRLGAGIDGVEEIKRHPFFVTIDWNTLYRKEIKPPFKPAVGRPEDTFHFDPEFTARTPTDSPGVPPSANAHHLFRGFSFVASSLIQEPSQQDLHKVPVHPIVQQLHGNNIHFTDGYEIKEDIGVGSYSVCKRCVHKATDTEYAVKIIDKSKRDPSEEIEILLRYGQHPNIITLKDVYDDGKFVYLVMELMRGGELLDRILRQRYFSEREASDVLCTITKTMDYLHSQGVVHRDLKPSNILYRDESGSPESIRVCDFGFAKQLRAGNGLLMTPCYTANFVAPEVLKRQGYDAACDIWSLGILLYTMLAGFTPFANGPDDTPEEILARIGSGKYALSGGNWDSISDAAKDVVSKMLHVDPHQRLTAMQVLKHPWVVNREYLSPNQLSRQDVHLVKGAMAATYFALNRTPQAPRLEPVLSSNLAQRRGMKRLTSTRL

[11] = biological target: MAP2K1 (human) (UniProt Q02750)
[12] = biological target: PAK4 (human) (UniProt O96013)
Chain of PAK4 (human) (O96013 whole entry, looked up): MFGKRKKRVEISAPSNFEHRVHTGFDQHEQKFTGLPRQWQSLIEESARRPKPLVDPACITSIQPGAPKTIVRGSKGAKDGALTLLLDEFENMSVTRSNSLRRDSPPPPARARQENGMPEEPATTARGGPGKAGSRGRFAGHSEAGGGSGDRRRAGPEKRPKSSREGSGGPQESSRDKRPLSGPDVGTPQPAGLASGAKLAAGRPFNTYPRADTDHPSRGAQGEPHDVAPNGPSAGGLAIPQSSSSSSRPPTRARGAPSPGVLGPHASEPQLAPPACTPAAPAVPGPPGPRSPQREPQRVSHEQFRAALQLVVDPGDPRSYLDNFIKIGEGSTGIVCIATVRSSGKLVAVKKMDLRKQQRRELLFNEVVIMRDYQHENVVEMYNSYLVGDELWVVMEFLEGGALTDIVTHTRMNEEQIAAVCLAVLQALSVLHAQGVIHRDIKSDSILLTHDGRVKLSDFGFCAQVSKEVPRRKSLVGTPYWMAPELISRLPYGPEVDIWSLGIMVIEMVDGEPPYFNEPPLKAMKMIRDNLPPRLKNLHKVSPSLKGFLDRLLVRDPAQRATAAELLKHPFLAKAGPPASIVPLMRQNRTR

[13] = biological target: MAP3K7 (human) (UniProt O43318)
[14] = biological target: ROS1 (human) (UniProt P08922)
[15] = biological target: AXL (human) (UniProt P30530)
Chain of AXL (human) (P30530 whole entry, looked up): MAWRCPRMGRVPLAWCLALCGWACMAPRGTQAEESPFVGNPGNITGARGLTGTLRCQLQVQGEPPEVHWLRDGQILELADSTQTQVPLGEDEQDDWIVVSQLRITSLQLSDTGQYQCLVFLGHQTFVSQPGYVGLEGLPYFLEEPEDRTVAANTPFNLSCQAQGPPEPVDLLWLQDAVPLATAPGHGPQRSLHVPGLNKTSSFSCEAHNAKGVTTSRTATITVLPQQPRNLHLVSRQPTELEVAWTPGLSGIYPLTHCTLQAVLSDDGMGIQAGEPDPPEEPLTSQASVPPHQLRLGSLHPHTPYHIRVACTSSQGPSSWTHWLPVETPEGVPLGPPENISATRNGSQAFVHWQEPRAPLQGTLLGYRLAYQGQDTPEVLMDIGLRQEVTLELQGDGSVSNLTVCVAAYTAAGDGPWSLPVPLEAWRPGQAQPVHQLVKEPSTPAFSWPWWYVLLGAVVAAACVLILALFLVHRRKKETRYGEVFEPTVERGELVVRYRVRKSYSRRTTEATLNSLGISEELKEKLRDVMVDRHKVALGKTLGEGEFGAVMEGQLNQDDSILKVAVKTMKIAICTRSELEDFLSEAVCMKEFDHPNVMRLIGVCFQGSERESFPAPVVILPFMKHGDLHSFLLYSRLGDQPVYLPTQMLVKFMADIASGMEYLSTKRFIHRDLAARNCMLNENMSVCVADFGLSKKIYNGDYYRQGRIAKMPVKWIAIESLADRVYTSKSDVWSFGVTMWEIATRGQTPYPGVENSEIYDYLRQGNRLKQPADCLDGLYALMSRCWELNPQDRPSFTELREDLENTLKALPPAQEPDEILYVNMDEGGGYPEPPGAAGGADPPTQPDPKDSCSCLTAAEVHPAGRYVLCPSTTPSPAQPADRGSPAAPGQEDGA

[16] = biological target: MAPKAPK2 (human) (UniProt P49137)
[17] = biological target: CIT (human) (UniProt O14578)
[18] = biological target: PKN1 (human) (UniProt Q16512)
[19] = biological target: CLK2 (human) (UniProt P49760)
[20] = biological target: STK10 (human) (UniProt O94804)
[21] = biological target: CAMK2G (human) (UniProt Q13555)
[22] = biological target: CDK14 (human) (UniProt O94921)
[23] = tested on: KIT (human), P10721 [V559D]
Chain of KIT (human), P10721 [V559D] (P10721 whole entry V559D, looked up): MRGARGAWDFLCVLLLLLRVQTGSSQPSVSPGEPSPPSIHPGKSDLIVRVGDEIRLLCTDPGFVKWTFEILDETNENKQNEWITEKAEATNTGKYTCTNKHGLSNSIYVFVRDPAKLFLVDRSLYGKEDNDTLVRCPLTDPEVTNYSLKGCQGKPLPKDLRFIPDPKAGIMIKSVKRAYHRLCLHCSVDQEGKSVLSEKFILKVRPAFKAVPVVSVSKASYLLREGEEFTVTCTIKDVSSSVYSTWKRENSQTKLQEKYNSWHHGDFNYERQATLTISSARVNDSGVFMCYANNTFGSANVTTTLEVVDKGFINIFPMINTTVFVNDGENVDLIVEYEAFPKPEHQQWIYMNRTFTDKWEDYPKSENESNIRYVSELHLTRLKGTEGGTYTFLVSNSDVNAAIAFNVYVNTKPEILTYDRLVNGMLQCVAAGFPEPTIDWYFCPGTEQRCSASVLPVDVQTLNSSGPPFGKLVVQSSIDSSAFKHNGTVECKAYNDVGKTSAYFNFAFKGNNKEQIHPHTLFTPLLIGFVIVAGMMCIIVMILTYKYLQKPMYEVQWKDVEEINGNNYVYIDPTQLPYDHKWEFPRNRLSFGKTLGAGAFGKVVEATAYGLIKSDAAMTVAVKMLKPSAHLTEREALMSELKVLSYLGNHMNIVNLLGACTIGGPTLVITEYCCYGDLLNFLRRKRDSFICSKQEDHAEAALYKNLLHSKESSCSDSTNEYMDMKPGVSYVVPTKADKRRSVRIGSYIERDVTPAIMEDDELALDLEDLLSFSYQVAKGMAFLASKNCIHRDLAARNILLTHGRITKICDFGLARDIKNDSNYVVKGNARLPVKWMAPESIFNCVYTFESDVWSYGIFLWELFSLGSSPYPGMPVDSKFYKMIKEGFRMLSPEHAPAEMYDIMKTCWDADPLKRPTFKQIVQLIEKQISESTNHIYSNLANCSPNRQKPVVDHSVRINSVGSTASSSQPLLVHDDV

[24] = tested on: EGFR (human), P00533 [L861Q]
[25] = biological target: ANKK1 (human) (UniProt Q8NFD2)
Chain of ANKK1 (human) (Q8NFD2 whole entry, looked up): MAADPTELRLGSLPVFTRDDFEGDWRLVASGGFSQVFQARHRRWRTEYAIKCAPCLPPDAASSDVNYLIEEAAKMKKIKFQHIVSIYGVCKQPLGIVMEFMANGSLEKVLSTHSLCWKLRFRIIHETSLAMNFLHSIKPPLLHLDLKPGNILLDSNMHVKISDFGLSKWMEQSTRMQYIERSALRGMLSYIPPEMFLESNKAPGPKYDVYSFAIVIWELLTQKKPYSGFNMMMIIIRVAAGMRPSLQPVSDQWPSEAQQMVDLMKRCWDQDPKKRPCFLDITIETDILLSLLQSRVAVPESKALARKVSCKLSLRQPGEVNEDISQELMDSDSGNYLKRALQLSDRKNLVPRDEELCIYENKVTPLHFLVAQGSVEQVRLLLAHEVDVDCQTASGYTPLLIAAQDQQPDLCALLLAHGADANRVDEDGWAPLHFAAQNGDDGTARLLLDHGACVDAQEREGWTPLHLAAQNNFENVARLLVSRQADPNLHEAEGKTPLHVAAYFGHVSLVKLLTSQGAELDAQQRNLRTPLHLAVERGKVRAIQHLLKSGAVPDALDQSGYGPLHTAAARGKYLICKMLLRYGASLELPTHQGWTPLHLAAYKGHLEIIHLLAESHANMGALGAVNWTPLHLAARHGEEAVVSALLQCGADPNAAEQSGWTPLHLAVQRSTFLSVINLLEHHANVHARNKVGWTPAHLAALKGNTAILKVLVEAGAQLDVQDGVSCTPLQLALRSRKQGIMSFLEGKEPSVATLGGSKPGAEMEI

[26] = tested on: PIK3CA (human), P42336 [E545K]
[27] = biological target: MUSK (human) (UniProt O15146)
[28] = biological target: PRKCH (human) (UniProt P24723)
[29] = biological target: CSNK2A2 (human) (UniProt P19784)
Chain of CSNK2A2 (human) (P19784 whole entry, looked up): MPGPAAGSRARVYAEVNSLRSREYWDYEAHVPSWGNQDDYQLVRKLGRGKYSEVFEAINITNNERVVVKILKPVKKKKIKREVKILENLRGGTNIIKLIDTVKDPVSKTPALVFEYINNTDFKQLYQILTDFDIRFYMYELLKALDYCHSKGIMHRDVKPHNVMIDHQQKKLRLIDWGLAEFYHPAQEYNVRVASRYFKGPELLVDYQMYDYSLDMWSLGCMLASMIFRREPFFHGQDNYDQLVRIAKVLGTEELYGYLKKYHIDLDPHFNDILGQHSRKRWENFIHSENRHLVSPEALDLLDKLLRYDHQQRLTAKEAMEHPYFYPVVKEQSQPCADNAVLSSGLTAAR

[30] = biological target: LIMK1 (human) (UniProt P53667)
[31] = biological target: IKBKE (human) (UniProt Q14164)
[32] = biological target: MAPK7 (human) (UniProt Q13164)
[33] = biological target: MET (human) (UniProt P08581)
[34] = biological target: ADCK3 (human) (UniProt Q8NI60)
[35] = biological target: ROCK2 (human) (UniProt O75116)
[36] = biological target: CAMK4 (human) (UniProt Q16566)
[37] = biological target: MAP3K12 (human) (UniProt Q12852)
[38] = biological target: LATS2 (human) (UniProt Q9NRM7)
[39] = biological target: MAP3K11 (human) (UniProt Q16584)
[40] = biological target: LCK (human) (UniProt P06239)
[41] = biological target: MAP3K5 (human) (UniProt Q99683)
[42] = tested on: RET (human), P07949 [M918T]

Compound: COc1cc(N2CCC(N3CCN(C)CC3)CC2)ccc1Nc1ncc(Cl)c(Nc2ccccc2S(=O)(=O)C(C)C)n1
- kinase still bound, per cent of control [1]: 0.05%
- kinase still bound, per cent of control [2]: 40%
- kinase still bound, per cent of control [3]: 40%
- kinase still bound, per cent of control [4]: 30%
- kinase still bound, per cent of control [5]: 6.9%
- kinase still bound, per cent of control [6]: 0.1%
- kinase still bound, per cent of control [7]: 4.1%
- kinase still bound, per cent of control [8]: 12%
- kinase still bound, per cent of control [9]: 17%
- kinase still bound, per cent of control [10]: 6.2%
- kinase still bound, per cent of control [11]: 3.6%
- kinase still bound, per cent of control [12]: 9.6%
- kinase still bound, per cent of control [13]: 2.2%
- kinase still bound, per cent of control [14]: 0.45%
- kinase still bound, per cent of control [15]: 0.1%
- kinase still bound, per cent of control [16]: 40%
- kinase still bound, per cent of control [17]: 40%
- kinase still bound, per cent of control [18]: 0.5%
- kinase still bound, per cent of control [19]: 0%
- kinase still bound, per cent of control [20]: 0%
- kinase still bound, per cent of control [21]: 2%
- kinase still bound, per cent of control [22]: 40%
- kinase still bound, per cent of control [23]: 0.1%
- kinase still bound, per cent of control [24]: 0.15%
- kinase still bound, per cent of control [25]: 40%
- kinase still bound, per cent of control [26]: 40%
- kinase still bound, per cent of control [27]: 0.35%
- kinase still bound, per cent of control [28]: 40%
- kinase still bound, per cent of control [29]: 40%
- kinase still bound, per cent of control [30]: 2.2%
- kinase still bound, per cent of control [31]: 25%
- kinase still bound, per cent of control [32]: 0%
- kinase still bound, per cent of control [33]: 0%
- kinase still bound, per cent of control [34]: 9.2%
- kinase still bound, per cent of control [35]: 0.95%
- kinase still bound, per cent of control [36]: 0.5%
- kinase still bound, per cent of control [37]: 0%
- kinase still bound, per cent of control [38]: 17%
- kinase still bound, per cent of control [39]: 20%
- kinase still bound, per cent of control [40]: 0.1%
- kinase still bound, per cent of control [41]: 40%

Compound: CCOc1cc(N2CCC(N3CCCCC3)CC2)ccc1Nc1nc(Nc2ccccc2S(=O)(=O)C(C)C)c2cn[nH]c2n1
- kinase still bound, per cent of control [1]: 96%
- kinase still bound, per cent of control [2]: 76%
- kinase still bound, per cent of control [3]: 97%
- kinase still bound, per cent of control [4]: 100%
- kinase still bound, per cent of control [5]: 100%
- kinase still bound, per cent of control [6]: 14%
- kinase still bound, per cent of control [7]: 34%
- kinase still bound, per cent of control [8]: 100%
- kinase still bound, per cent of control [9]: 99%
- kinase still bound, per cent of control [10]: 7.4%
- kinase still bound, per cent of control [11]: 100%
- kinase still bound, per cent of control [12]: 85%
- kinase still bound, per cent of control [13]: 59%
- kinase still bound, per cent of control [14]: 5.8%
- kinase still bound, per cent of control [15]: 100%
- kinase still bound, per cent of control [16]: 100%
- kinase still bound, per cent of control [17]: 100%
- kinase still bound, per cent of control [18]: 100%
- kinase still bound, per cent of control [19]: 2.2%
- kinase still bound, per cent of control [20]: 100%
- kinase still bound, per cent of control [21]: 71%
- kinase still bound, per cent of control [22]: 100%
- kinase still bound, per cent of control [23]: 86%
- kinase still bound, per cent of control [24]: 7.7%
- kinase still bound, per cent of control [42]: 100%
- kinase still bound, per cent of control [25]: 100%
- kinase still bound, per cent of control [26]: 100%
- kinase still bound, per cent of control [27]: 100%
- kinase still bound, per cent of control [28]: 100%
- kinase still bound, per cent of control [29]: 94%
- kinase still bound, per cent of control [30]: 100%
- kinase still bound, per cent of control [31]: 100%
- kinase still bound, per cent of control [32]: 0.9%
- kinase still bound, per cent of control [33]: 100%
- kinase still bound, per cent of control [34]: 84%
- kinase still bound, per cent of control [35]: 25%
- kinase still bound, per cent of control [36]: 1%
- kinase still bound, per cent of control [37]: 100%
- kinase still bound, per cent of control [38]: 88%
- kinase still bound, per cent of control [39]: 100%
- kinase still bound, per cent of control [40]: 84%
- kinase still bound, per cent of control [41]: 100%
